Structures are written as SMILES.

We go through 10 compounds from patent publication US11053196B2, “Substituted indoline derivatives as dengue viral replication inhibitors” (JANSSEN PHARMACEUTICALS, INC., priority 2017, dated 2021).

The subject of one data set is DENV-4 strain H241. Briefly: Tetravalent RT-qPCR assay, serotype 4. In kind it is cell-based. The conditions noted are these: Dengue virus, DENV4, 72 h; RT-qPCR serotype 4 H241, Vero cells, day 3. On the procedure: (§1) The antiviral activity of the compounds of the invention was tested against DENV-1 strain TC974#666 (NCPV), DENV-2 strain 16681, DENV-3 strain H87 (NCPV) and DENV-4 strain H241 (NCPV) in a RT-qPCR assay. Therefore, Vero cells were infected with either DENV-1, or -2, or -3, or -4 in the presence or absence of test compounds. At day 3 post-infection, the cells were lysed and cell lysates were used to prepare cDNA of both a viral target (the 3′UTR of DENV; Table 2) and a cellular reference gene (1-actin, Table 2). Subsequently, a duplex real time PCR was performed on a Lightcycler480 instrument. The generated Cp value is inversely proportional to the amount of RNA expression of these targets. Inhibition of DENV replication by a test compound results in a shift of Cp's for the 3′UTR gene. On the other hand, if a test compound is toxic to the cells, a similar effect on 1-actin expression will be observed. The comparative ΔΔCp method is used to calculate EC50, which is based on the relative gene expression of the target gene (3′UTR) normalized with the cellular housekeeping gene (1-actin). In addition, CC50 values are determined based on the C, values acquired for the housekeeping gene β-actin.
(§2) The culture medium consisted of minimal essential medium supplemented with 2% of heat-inactivated fetal calf serum, 0.04% gentamycin (50 mg/mL) and 2 mM of L-glutamine. Vero cells, obtained from ECACC, were suspended in culture medium and 75 μL/well was added in 96-well plates (10000 cells/well), which already contain the antiviral compounds. […] In addition, each plate contains wells which are assigned as virus controls (containing cells and virus in the absence of compound) and cell controls (containing cells in the absence of virus and compound). Once the cells were added in the plates, the plates were incubated in a fully humidified incubator (37° C., 5% CO2) until the next day. Dengue viruses serotype-1, 2, 3 and 4 were diluted in order to obtain a Cp of ˜22-24 in the assay. Therefore, 25 μL of virus suspension was added to all the wells containing test compound and to the wells assigned as virus control. In parallel, 25 μL of culture medium was added to the cell controls. Next, the plates were incubated for 3 days in a fully humidified incubator (37° C., 5% CO2). After 3 days, the supernatant was removed from the wells and the cells were washed twice with ice-cold PBS (−100 μL). The cell pellets within the 96-well plates were stored at −80° C. for at least 1 day. Next, RNA was extracted using the Cells-to-CT™ lysis kit, according to the manufacturer's guideline (Life Technologies). The cell lysates can be stored at −80° C. or immediately used in the reverse transcription step.
(§3) In preparation of the reverse transcription step, mix A (table 3A) was prepared and 7.57 μL/well was dispensed in a 96-well plate. After addition of 5 μL of the cell lysates, a five minute denaturation step at 75° C. was performed (table 3B). Afterwards, 7.43 μL of mix B was added (table 3C) and the reverse transcription step was initiated (table 3D) to generate cDNA.
(§4) Finally, a RT-qPCR mix was prepared, mix C (table 4A), and 22.02 μL/well was dispensed in 96-well LightCycler qPCR plates to which 3 μL of cDNA was added and the qPCR was performed according to the conditions in table 4B on a LightCycler 480.
(§5) Using the LightCycler software and an in-house LIMS system, dose response curves for each compound were calculated and the half maximal effective concentration (EC50) and the half maximal cytotoxic concentration (CC50) were determined (Tables 5-8).

A further data set relates to Vero cells. Particulars: African green monkey.
For another data set, the system named is DENV-1 strain TC974#666. Briefly: Tetravalent RT-qPCR assay, serotype 1. Particulars: Dengue virus, DENV1, 72 h; RT-qPCR serotype 1 TC974#666, Vero cells, day 3. In kind it is cell-based. The method, then: as §1, §2, §3, §4, §5
(Real-time PCR tracks product formation cycle by cycle.)

The next data set deals with DENV-2 strain 16681. Briefly: Tetravalent RT-qPCR assay, serotype 2. In kind it is cell-based. The conditions noted are these: Dengue virus, DENV2, 72 h; RT-qPCR serotype 2 16681, Vero cells, day 3. On the procedure: as §1, §2, §3, §4, §5
The next data set deals with DENV-3 strain H87. Briefly: Tetravalent RT-qPCR assay, serotype 3. In kind it is cell-based. Particulars: Dengue virus, DENV3, 72 h; RT-qPCR serotype 3 H87, Vero cells, day 3. On the procedure:
as §1, §2, §3, §4, §5

In a further data set the test system is DENV-2 16681 strain. Briefly: DENV-2 antiviral assay (eGFP-labeled virus in Vero cells). In kind it is cell-based, Dengue virus. The conditions noted are these: DENV-2 16681 eGFP, MOI 0.5, 3 days. On the procedure: The antiviral activity of all the compounds of the invention was tested against the DENV-2 16681 strain which was labeled with enhanced green fluorescent protein (eGPF). The culture medium consists of minimal essential medium supplemented with 2% of heat-inactivated fetal calf serum, 0.04% gentamycin (50 mg/mL) and 2 mM of L-glutamine. Vero cells, obtained from ECACC, were suspended in culture medium and 25 μL was added to 384-well plates (2500 cells/well), which already contain the antiviral compounds. Typically, these plates contain a 5-fold serial dilution of 9 dilution steps of the test compound at 200 times the final concentration in 100% DMSO (200 nL). […] Finally, each plate contains wells which are assigned as virus controls (containing cells and virus in the absence of compound), cell controls (containing cells in the absence of virus and compound) and medium controls (containing medium in the absence of cells, virus and compounds). To the wells assigned as medium control, 25 μL of culture medium was added instead of Vero cells. Once the cells are added to the plates, the plates were incubated for 30 minutes at room temperature to allow the cells to distribute evenly within the wells. Next, the plates were incubated in a fully humidified incubator (37° C., 5% CO2) until the next day. Then, DENV-2 strain 16681, labeled with eGFP, was added at a multiplicity of infection (MOI) of 0.5.
Therefore, 15 μL of virus suspension was added to all the wells containing test compound and to the wells assigned as virus control. In parallel, 15 μL of culture medium was added to the medium and cell controls. Next, the plates were incubated for 3 days in a fully humidified incubator (37° C., 5% CO2). At the day of the read out, the eGFP fluorescence was measured using an automated fluorescence microscope at 488 nm (blue laser). Using an in-house LIMS system, inhibition dose response curves for each compound were calculated and the half maximal effective concentration (EC50) was determined. Therefore, the percent inhibition (I) for every test concentration is calculated using the following formula: I=100*(ST−SCC)/(SVC−SCC); ST, SCC and SVC are the amount of eGFP signal in the test compound, cell control and virus control wells, respectively. The EC50 represents the concentration of a compound at which the virus replication is inhibited with 50%, as measured by a 50% reduction of the eGFP fluorescent intensity compared to the virus control. The EC50 is calculated using linear interpolation (Table 1).

Data set [1] is described as follows: Toxicity in DENV-2 antiviral assay plates (ATPlite cell viability). The conditions noted are these: African green monkey, CC50, Vero cells, same plates as DENV-2 antiviral assay.
The nature of the next data set: in vitro. The conditions noted are these: African green monkey.

As usually defined, the EC50 is the concentration giving half of the maximal effect. In the case of `COc1cc(NC(C(=O)N2CCc3c(C)cc(C(F)(F)F)cc32)c2ccc(Cl)cc2)cc(OCCCC(=O)O)c1` (single isomer, unassigned) [Compound 2B, 4-(3-((1-(4-chlorophenyl)-2-(4-methyl-6-(trifluoromethyl)indolin-1-yl)-2-oxoethyl)amino)-5-methoxyphenoxy)butanoic acid], the EC50 was 10 nM with DENV-4 strain H241; 0.091 nM in the data set on DENV-1 strain TC974#666; 0.061 nM with DENV-2 strain 16681; 0.85 nM with DENV-3 strain H87; 0.078 nM in the data set with DENV-2 16681 strain. Also, in the data set with Vero cells, the CC50 turned out to be 14000 nM.
The compound `COc1cc(NC(C(=O)N2CCc3c(C)cc(OC(F)(F)F)cc32)c2ccc(Cl)cc2)cc(OCCCC(=O)O)c1` (single isomer, unassigned) [Compound 4A, 4-(3-((1-(4-chlorophenyl)-2-(4-methyl-6-(trifluoromethoxy)indolin-1-yl)-2-oxoethyl)amino)-5-methoxyphenoxy)butanoic acid] returned a CC50 in data set [1] of 13000 nM. The EC50 in the data set with DENV-2 16681 strain was 11 nM.
With `COc1cc(NC(C(=O)N2CCc3ccc(S(F)(F)(F)(F)F)cc32)c2ccc(Cl)cc2)cc(OCCCC(=O)O)c1` (single isomer, unassigned) [Compound 1B, 4-(3-((1-(4-chlorophenyl)-2-oxo-2-(6-(pentafluoro-λ^6-sulfanyl)indolin-1-yl)ethyl)amino)-5-methoxyphenoxy)butanoic acid], the EC50 in the data set on DENV-4 strain H241 was 9.6 nM; in the data set on DENV-1 strain TC974#666 it was 0.096 nM; with DENV-2 strain 16681, 0.18 nM; in the data set on DENV-3 strain H87, 1.9 nM; in the data set on DENV-2 16681 strain, 0.11 nM. This compound registered a CC50 in the data set on Vero cells of 13000 nM.
With `COc1cc(NC(C(=O)N2CCc3sc(C(F)(F)F)cc32)c2ccc(Cl)cc2)cc(OCCCC(=O)O)c1` (single isomer, unassigned) [Compound 10B, 4-(3-((1-(4-chlorophenyl)-2-oxo-2-(2-(trifluoromethyl)-5,6-dihydro-4H-thieno[3,2-b]pyrrol-4-yl)ethyl)amino)-5-methoxyphenoxy)butanoic acid], the CC50 in the data set on Vero cells came to 12000 nM. The same compound yielded an EC50 in the data set on DENV-2 16681 strain of 37 nM.
Turning to `COc1cc(NC(C(=O)N2CCc3c(C)cc(OC(F)(F)F)cc32)c2ccc(Cl)cc2)cc(OCCCC(=O)O)c1` (single isomer, unassigned) [Compound 4B, 4-(3-((1-(4-chlorophenyl)-2-(4-methyl-6-(trifluoromethoxy)indolin-1-yl)-2-oxoethyl)amino)-5-methoxyphenoxy)butanoic acid], the EC50 with DENV-4 strain H241 is 12 nM; with DENV-1 strain TC974#666, 0.11 nM; in the data set on DENV-2 strain 16681 it was 0.067 nM; in the data set with DENV-3 strain H87 it was 0.92 nM; in the data set with DENV-2 16681 strain it was 0.057 nM. Moreover, in “in vitro”, the CC50 was 13000 nM.
In the case of `COc1cc(NC(C(=O)N2CCc3sc(C(F)(F)F)cc32)c2ccc(Cl)cc2)cc(OCCCC(=O)O)c1` (single isomer, unassigned) [Compound 10A, 4-(3-((1-(4-chlorophenyl)-2-oxo-2-(2-(trifluoromethyl)-5,6-dihydro-4H-thieno[3,2-b]pyrrol-4-yl)ethyl)amino)-5-methoxyphenoxy)butanoic acid], the EC50 stood at 30 nM in the data set on DENV-4 strain H241; 0.22 nM in the data set on DENV-1 strain TC974#666; 0.11 nM in the data set with DENV-2 strain 16681; 4.2 nM in the data set with DENV-3 strain H87; 0.3 nM in the data set on DENV-2 16681 strain. This compound also showed a CC50 in the data set “in vitro” of 14000 nM.
Turning to `[2H]C(Nc1cc(OC)cc(OCCCC(=O)O)c1)(C(=O)N1CCc2ccc(OC(F)(F)F)cc21)c1ccc(Cl)cc1` (single isomer, unassigned) [Compound 7A-D, 4-(3-((1-(4-chlorophenyl)-1-deuterio-2-oxo-2-(6-(trifluoromethoxy)indolin-1-yl)ethyl)amino)-5-methoxyphenoxy)butanoic acid], the EC50 with DENV-4 strain H241 worked out at 13 nM; in the data set on DENV-1 strain TC974#666, 0.24 nM; with DENV-2 strain 16681 it was 0.16 nM; in the data set on DENV-3 strain H87, 2.4 nM; in the data set with DENV-2 16681 strain, 0.1 nM. In addition, the CC50 in “in vitro” was 12000 nM.
As to `COc1cc(NC(C(=O)N2CCc3cc(F)c(OC(F)(F)F)cc32)c2ccc(Cl)cc2)cc(OCCCC(=O)O)c1` (single isomer, unassigned) [Compound 5B, 4-(3-((1-(4-chlorophenyl)-2-(5-fluoro-6-(trifluoromethoxy)indolin-1-yl)-2-oxoethyl)amino)-5-methoxyphenoxy)butanoic acid], the EC50 stood at 20 nM in the data set on DENV-4 strain H241; 0.33 nM with DENV-1 strain TC974#666; 0.29 nM in the data set with DENV-2 strain 16681; 2.6 nM in the data set with DENV-3 strain H87; 0.12 nM in the data set with DENV-2 16681 strain. Besides, the CC50 in the data set with Vero cells worked out at 12000 nM.
For the compound `[2H]C(Nc1cc(OC)cc(OCCCC(=O)O)c1)(C(=O)N1CCc2ccc(OC(F)(F)F)cc21)c1ccc(Cl)cc1` (single isomer, unassigned) [Compound 7B-D, 4-(3-((1-(4-chlorophenyl)-1-deuterio-2-oxo-2-(6-(trifluoromethoxy)indolin-1-yl)ethyl)amino)-5-methoxyphenoxy)butanoic acid], the CC50 with Vero cells was determined as 9600 nM. This compound gave an EC50 in the data set with DENV-2 16681 strain of 16 nM.
As to `COc1cc(NC(C(=O)N2CCc3cc(F)c(C(F)(F)F)cc32)c2ccc(Cl)cc2)cc(OCCCC(=O)O)c1` (single isomer, unassigned) [Compound 3A, 4-(3-((1-(4-chlorophenyl)-2-(5-fluoro-6-(trifluoromethyl)indolin-1-yl)-2-oxoethyl)amino)-5-methoxyphenoxy)butanoic acid], the CC50 in data set [1] turned out to be 12000 nM. In the data set with DENV-2 16681 strain, the EC50 came to 36 nM.
